Source: PMC4969146 (Bioorganic & medicinal chemistry letters, 2016)
In brackets after ≈: the same amount, converted by molar mass. Like-named read-outs stand apart in the source and are kept apart here.

System: Escherichia coli K12
Format: cell-based
[1] = K12, read-out: Minimum Inhibitory Concentration E. coli K12, M9 media
[2] = K12, read-out: Minimum Inhibitory Concentration E. coli K12, M9 plus 5 µg/mL PABA
[3] = K12, read-out: Minimum Inhibitory Concentration E. coli K12, M9 plus 20 µg/mL Methionine

SMILES | MIC [1] [µM] | MIC [2] [µM] | MIC [3] [µM]
Cc1cc(NS(=O)(=O)c2ccc(N)cc2)no1 [parent sulfonamide of 15, sulfamethoxazole] | 0.8 (≈ 0.203 µg/mL) | 263 | 1.5
Nc1ccc(S(N)(=O)=O)cc1 [parent sulfonamide of 22, sulfanilamide] | 22 (≈ 3.79 µg/mL) | > 934 | 58
Nc1ccc(S(=O)(=O)c2ccc(N)cc2)cc1 [parent sulfonamide of 21, 4-[(4-aminobenzene)sulfonyl]aniline] | 25 (≈ 6.21 µg/mL) | > 934 | 50
COc1cc(NS(=O)(=O)c2ccc(N)cc2)nc(OC)n1 [parent sulfonamide of 19, sulfadimethoxine] | 1.6 (≈ 0.497 µg/mL) | 537 | 3.4
